{"source": "patent US11096985B2", "about": "“Antimicrobial peptides, their variants and uses” (priority 2015, dated 2021)", "key": {"[1]": {"tested_on": "clinical strains of Proteus mirabilis", "assay": "MIC, clinical strains of Proteus mirabilis", "format": "cell-based", "design": "unit: µg/mL", "settings": "microdilution, Muller Hinton broth-cation adjusted, 0.02% BSA, 0.2% acetic acid", "description": "(§1) Minimum inhibition concentrations (MICs) were determined against Escherichia coli (ATCC 25922), Staphylococcus aureus (ATCC 25923), Klebsiella pneumoniae (ATCC 10031) and Pseudomonas aeruginosa (ATCC 27853). Also clinical strains of E. coli, K. pneumoniae, E. cloacae, P. aeruginosa, Serratia marcescens, Proteus mirabilis, S. pneumoniae, Acinetobacter baumannii, A. johnsonii and S. aureus were used for MICs assays. Additionally, clinical strains of yeast including Candida albicans, C. glabrata, C. parapsilosis and C. quillermondiae were used. The susceptibility of these microorganisms to Chain peptides were determined using micro broth dilution assay. Colonies of the respective microorganism from Muller Hinton (MH) agar plates incubated overnight were suspended in MH broth media and final concentration of microorganism was adjusted to 5.0×10^5 cfu/ml. An aliquot of 10 μl of each Chain peptide, or gentamicin, tetracycline as reference antibiotics were added in differing concentrations along with 90 μl of bacterial suspension to 96 well polypropylene plates and incubated at 37° C. for 20 to 24 hours. Concentrations of Chain peptides and reference antibiotics ranged from 0.125 to 128 μg/ml and the MICs were recorded as the lowest concentration with no visual growth of bacteria. Similarly, antifungal MICs were tested in Potato dextrose broth.\n(§2) Clinical strains of yeasts including Candida albicans, C. glabrata, C. parapsilosis and C. quillermondiae were also tested with the 12 Chain peptides. The minimum inhibitory concentration (MICs) varied between these peptides and are presented in Tables 4a, 4b, 4c and 5a, 5b, 5c. Peptides Chain 105, 201 and 308 are broad spectrum antimicrobials with MICs between 0.5-32 μg/ml against all the bacteria and yeasts tested, except Serratia marcescens and Proteus mirabilis, against which the MICs were between 64-128 μg/ml. Peptide Chain 306 has narrow spectrum activity against E.coli at 1 μg/ml and for the rest of the bacterial strains at >32 μg/ml (FIG. 10)."}, "[2]": {"tested_on": "clinical strains of Pseudomonas aeruginosa", "assay": "MIC, clinical strains of P. aeruginosa", "format": "cell-based", "design": "unit: μg/ml", "settings": "microdilution, Muller Hinton broth-cation adjusted, 0.02% BSA, 0.2% acetic acid", "description": "as §1, §2"}, "[3]": {"tested_on": "clinical strains of C. glabrata", "assay": "MIC, clinical yeast strains, C. glabrata", "format": "cell-based, Candida glabrata", "design": "unit: μg/ml", "method_in_brief": "(§3)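 Broth microdilution in Mueller Hinton broth, inoculum adjusted to 5.0×10^5 cfu/ml, peptide tested at 0.125 to 128 μg/ml and incubated at 37° C. for 20 to 24 hours. MIC was the lowest concentration with no visible growth. Yeasts were tested in potato dextrose broth.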"}, "[4]": {"tested_on": "clinical strains of Staphylococcus aureus", "assay": "MIC, clinical strains of S. aureus", "format": "cell-based", "design": "unit: μg/ml", "settings": "microdilution, Muller Hinton broth-cation adjusted, 0.02% BSA, 0.2% acetic acid", "description": "as §1, §2"}, "[5]": {"tested_on": "clinical strains of Enterobacter cloacae", "assay": "MIC, clinical strains of Enterobacter cloacae", "format": "cell-based", "design": "unit: μg/ml", "settings": "microdilution, Muller Hinton broth-cation adjusted, 0.02% BSA, 0.2% acetic acid", "description": "as §1, §2"}, "[6]": {"tested_on": "clinical strains of Candida albicans", "assay": "MIC, clinical yeast strains, Candida albicans", "format": "cell-based", "design": "unit: μg/ml", "method_in_brief": "as §3"}, "[7]": {"tested_on": "clinical strains of C. quillermondiae", "assay": "MIC, clinical yeast strains, C. quillermondiae", "format": "cell-based", "settings": "C. quillermondiae clinical yeast strain 1", "method_in_brief": "as §3"}, "[8]": {"tested_on": "clinical strains of Streptococcus pneumoniae", "assay": "MIC, clinical strains of Streptococcus pneumoniae", "format": "cell-based", "design": "unit: µg/mL", "settings": "microdilution, Muller Hinton broth-cation adjusted, 0.02% BSA, 0.2% acetic acid", "description": "as §1, §2"}, "[9]": {"tested_on": "clinical strains of Serratia marcescens", "assay": "MIC, clinical strains of Serratia marcescens", "format": "cell-based", "design": "unit: µg/mL", "settings": "microdilution, Muller Hinton broth-cation adjusted, 0.02% BSA, 0.2% acetic acid", "description": "as §1, §2"}, "[10]": {"tested_on": "clinical strains of C. parapsilosis", "assay": "MIC, clinical yeast strains, C. parapsilosis", "format": "cell-based, Candida parapsilosis", "design": "unit: μg/ml", "method_in_brief": "as §3"}, "[11]": {"tested_on": "clinical strains of Klebsiella pneumoniae", "assay": "MIC, clinical strains of K. pneumoniae", "format": "cell-based", "design": "unit: μg/ml", "settings": "microdilution, Muller Hinton broth-cation adjusted, 0.02% BSA, 0.2% acetic acid", "description": "as §1, §2"}, "[12]": {"tested_on": "clinical strains of Escherichia coli", "assay": "MIC, clinical strains of E. coli", "format": "cell-based", "design": "unit: μg/ml", "settings": "microdilution, Muller Hinton broth-cation adjusted, 0.02% BSA, 0.2% acetic acid", "description": "as §1, §2"}}, "note": "Where a SMILES comes first, the peptide text is derived from it. [ ]: non-standard residue; d: D form.", "data": [{"molecule": "CC(C)C[C@@H](NC(=O)[C@@H](Cc1c[nH]c2ccccc12)NC(=O)[C@@H](Cc1ccccc1)NC(=O)[C@@H](Cc1c[nH]c2ccccc12)NC(=O)[C@@H](CCCCN)NC(=O)[C@@H](CCCNC(=N)N)NC(=O)[C@H](N)Cc1c[nH]c2ccccc12)C(=O)N[C@H](Cc1ccccc1)C(=O)N[C@H](CCCCN)C(=O)N[C@H](CCCCN)C(=O)N[C@H](CCCNC(=N)N)C(=O)O", "note": "[Chain309D] (H-[dW][dR][dK][dW][dF][dW][dL][dF][dK][dK][dR]-OH)", "values": [{"measurement": "Minimum inhibitory concentration", "setting": "[1]; Proteus mirabilis clinical strain 1", "value": ">128"}, {"measurement": "Minimum inhibitory concentration", "setting": "[1]; Proteus mirabilis clinical strain 2", "value": ">128"}, {"measurement": "Minimum inhibitory concentration", "setting": "[1]; Proteus mirabilis clinical strain 3", "value": ">128"}, {"measurement": "Minimum inhibitory concentration", "setting": "[1]; Proteus mirabilis clinical strain 4", "value": ">128"}, {"measurement": "Minimum inhibitory concentration", "setting": "[1]; Proteus mirabilis clinical strain 5", "value": ">128"}, {"measurement": "Minimum inhibitory concentration", "setting": "[2]; Pseudomonas aeruginosa clinical strain 1", "value": 16}, {"measurement": "Minimum inhibitory concentration", "setting": "[2]; Pseudomonas aeruginosa clinical strain 2", "value": 32}, {"measurement": "Minimum inhibitory concentration", "setting": "[2]; Pseudomonas aeruginosa clinical strain 3", "value": 16}, {"measurement": "Minimum inhibitory concentration", "setting": "[2]; Pseudomonas aeruginosa clinical strain 4", "value": 32}, {"measurement": "Minimum inhibitory concentration", "setting": "[2]; Pseudomonas aeruginosa clinical strain 5", "value": 8}, {"measurement": "Minimum inhibitory concentration", "setting": "[3]; C. glabrata clinical yeast strain 1", "value": 32}, {"measurement": "Minimum inhibitory concentration", "setting": "[3]; C. glabrata clinical yeast strain 2", "value": 64}, {"measurement": "Minimum inhibitory concentration", "setting": "[3]; C. glabrata clinical yeast strain 3", "value": 4}, {"measurement": "Minimum inhibitory concentration", "setting": "[3]; C. glabrata clinical yeast strain 4", "value": 128}, {"measurement": "Minimum inhibitory concentration", "setting": "[4]; Staphylococcus aureus clinical strain 1", "value": 8}, {"measurement": "Minimum inhibitory concentration", "setting": "[4]; Staphylococcus aureus clinical strain 2", "value": 16}, {"measurement": "Minimum inhibitory concentration", "setting": "[4]; Staphylococcus aureus clinical strain 3", "value": 8}, {"measurement": "Minimum inhibitory concentration", "setting": "[4]; Staphylococcus aureus clinical strain 4", "value": 8}, {"measurement": "Minimum inhibitory concentration", "setting": "[4]; Staphylococcus aureus clinical strain 5", "value": 8}, {"measurement": "Minimum inhibitory concentration", "setting": "[5]; Enterobacter cloacae clinical strain 1", "value": ">128"}, {"measurement": "Minimum inhibitory concentration", "setting": "[5]; Enterobacter cloacae clinical strain 2", "value": 128}, {"measurement": "Minimum inhibitory concentration", "setting": "[5]; Enterobacter cloacae clinical strain 3", "value": 64}, {"measurement": "Minimum inhibitory concentration", "setting": "[5]; Enterobacter cloacae clinical strain 4", "value": 64}, {"measurement": "Minimum inhibitory concentration", "setting": "[5]; Enterobacter cloacae clinical strain 5", "value": 32}, {"measurement": "Minimum inhibitory concentration", "setting": "[6]; Candida albicans clinical yeast strain 1", "value": 32}, {"measurement": "Minimum inhibitory concentration", "setting": "[6]; Candida albicans clinical yeast strain 2", "value": 32}, {"measurement": "Minimum inhibitory concentration", "setting": "[6]; Candida albicans clinical yeast strain 3", "value": 16}, {"measurement": "Minimum inhibitory concentration", "setting": "[6]; Candida albicans clinical yeast strain 4", "value": 16}, {"measurement": "Minimum inhibitory concentration", "setting": "[6]; Candida albicans clinical yeast strain 5", "value": 32}, {"measurement": "Minimum inhibitory concentration", "setting": "[7]", "value": 8}, {"measurement": "Minimum inhibitory concentration", "setting": "[8]; Streptococcus pneumoniae clinical strain 1", "value": 64}, {"measurement": "Minimum inhibitory concentration", "setting": "[8]; Streptococcus pneumoniae clinical strain 2", "value": 64}, {"measurement": "Minimum inhibitory concentration", "setting": "[8]; Streptococcus pneumoniae clinical strain 3", "value": 64}, {"measurement": "Minimum inhibitory concentration", "setting": "[8]; Streptococcus pneumoniae clinical strain 4", "value": 64}, {"measurement": "Minimum inhibitory concentration", "setting": "[8]; Streptococcus pneumoniae clinical strain 5", "value": 64}, {"measurement": "Minimum inhibitory concentration", "setting": "[9]; Serratia marcescens clinical strain 1", "value": ">128"}, {"measurement": "Minimum inhibitory concentration", "setting": "[9]; Serratia marcescens clinical strain 2", "value": ">128"}, {"measurement": "Minimum inhibitory concentration", "setting": "[9]; Serratia marcescens clinical strain 3", "value": ">128"}, {"measurement": "Minimum inhibitory concentration", "setting": "[9]; Serratia marcescens clinical strain 4", "value": ">128"}, {"measurement": "Minimum inhibitory concentration", "setting": "[9]; Serratia marcescens clinical strain 5", "value": ">128"}, {"measurement": "Minimum inhibitory concentration", "setting": "[10]; C. parapsilosis clinical yeast strain 1", "value": 64}, {"measurement": "Minimum inhibitory concentration", "setting": "[10]; C. parapsilosis clinical yeast strain 2", "value": 64}, {"measurement": "Minimum inhibitory concentration", "setting": "[10]; C. parapsilosis clinical yeast strain 3", "value": 32}, {"measurement": "Minimum inhibitory concentration", "setting": "[10]; C. parapsilosis clinical yeast strain 4", "value": 16}, {"measurement": "Minimum inhibitory concentration", "setting": "[11]; Klebsiella pneumoniae clinical strain 1", "value": 128}, {"measurement": "Minimum inhibitory concentration", "setting": "[11]; Klebsiella pneumoniae clinical strain 2", "value": 32}, {"measurement": "Minimum inhibitory concentration", "setting": "[11]; Klebsiella pneumoniae clinical strain 3", "value": ">128"}, {"measurement": "Minimum inhibitory concentration", "setting": "[11]; Klebsiella pneumoniae clinical strain 4", "value": 32}, {"measurement": "Minimum inhibitory concentration", "setting": "[11]; Klebsiella pneumoniae clinical strain 5", "value": 128}, {"measurement": "Minimum inhibitory concentration", "setting": "[12]; Escherichia coli clinical strain 1", "value": 0.5}, {"measurement": "Minimum inhibitory concentration", "setting": "[12]; Escherichia coli clinical strain 2", "value": 32}, {"measurement": "Minimum inhibitory concentration", "setting": "[12]; Escherichia coli clinical strain 3", "value": 16}, {"measurement": "Minimum inhibitory concentration", "setting": "[12]; Escherichia coli clinical strain 4", "value": 32}, {"measurement": "Minimum inhibitory concentration", "setting": "[12]; Escherichia coli clinical strain 5", "value": 16}]}]}
